Test systems include NCI-H23; HOP-62; OVCAR-5; UACC-62; NCI-H226; OVCAR-4; MCF7; ACHN; MDA-N; TK-10; A498; SF-295; HCC 2998; SW-620; U-251; CCRF-CEM; RPMI-8226; OVCAR-8; SN12C; KM12.
What all share (test): NCI tumour cell line growth inhibition, 48 h

The structures appear in SMILES notation.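 Step 1: Grow cells in 96-well plates. Step 2: Expose to compound for 48 hours at 5 concentrations. Step 3: Interpolate endpoints linearly; if unreached, use highest concentration. The concentration for 50% growth inhibition is given as GI50.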 Active and inactive are the calls of the source. Cut-off read from the data, not from the text of the source: active = GI50 up to about 1.1 µM and inactive = higher.

On to `CC(C)CCC[C@@H](C)[C@H]1CC[C@H]2[C@@H]3CC[C@H]4C[C@H](N)CC[C@]4(C)[C@H]3CC[C@]12C`, for which the GI50 with NCI-H23 was 26.1 µM (inactive); with HOP-62, 20 µM (inactive); with OVCAR-5, 15.4 µM (inactive); with UACC-62 it was 19.2 µM (inactive); with NCI-H226, 17.3 µM (inactive); in the assay with OVCAR-4, 21.9 µM (inactive). Besides, the GI50 with MCF7 is 23.8 µM (inactive); in the assay on ACHN, 17.5 µM (inactive); in the assay with MDA-N, 30.9 µM (inactive); with TK-10, 16.6 µM (inactive); in the assay on A498, 22.2 µM (inactive); with SF-295 it was 19.3 µM (inactive). In addition, the GI50 is 16.4 µM (inactive) in the assay with HCC 2998; 31.6 µM (inactive) in the assay on SW-620; 13.8 µM (inactive) in the assay on U-251; 2.83 µM (inactive) in the assay with CCRF-CEM; 20.7 µM (inactive) in the assay with RPMI-8226; 24.4 µM (inactive) in the assay on OVCAR-8. Moreover, the GI50 is 22.9 µM (inactive) with SN12C and 23.6 µM (inactive) with KM12.

`O=C(Nc1ccc(Nc2ccc3c(c2)C(=O)c2ccccc2C3=O)c2c1C(=O)c1ccccc1C2=O)c1ccccc1`: the GI50 was 79.4 µM (inactive) in the assay on NCI-H23; 44.9 µM (inactive) in the assay on HOP-62; > 100 µM (inactive) in the assay with OVCAR-5; > 100 µM (inactive) in the assay on UACC-62; > 100 µM (inactive) in the assay on NCI-H226; > 100 µM (inactive) in the assay with OVCAR-4. Besides, the GI50 in the assay on MCF7 was 31.3 µM (inactive); in the assay with ACHN, > 100 µM (inactive); in the assay with MDA-N, 3.05 µM (inactive); with TK-10, 95.3 µM (inactive); in the assay on A498 it was > 87.7 µM (inactive); with SF-295, 31.4 µM (inactive). In addition, the GI50 in the assay with HCC 2998 was 6.84 µM (inactive); with SW-620, 38.6 µM (inactive); with U-251, 19.5 µM (inactive); in the assay on CCRF-CEM it was 14.6 µM (inactive); in the assay with RPMI-8226 it was 38.7 µM (inactive); in the assay with OVCAR-8, > 86.5 µM (inactive). Moreover, the GI50 is > 100 µM (inactive) in the assay with SN12C and 34.2 µM (inactive) with KM12.

Consider `OCCCc1cc(O)c2c(c1)C(CO)C(c1ccc(O)c(O)c1)O2` (stereo not drawn), for which the GI50 is > 100 µM (inactive) in the assay with NCI-H23; > 100 µM (inactive) with HOP-62; > 100 µM (inactive) in the assay on OVCAR-5; > 100 µM (inactive) in the assay on UACC-62; > 100 µM (inactive) with NCI-H226; > 10 µM (inactive) in the assay on OVCAR-4. Besides, the GI50 with MCF7, with ACHN, with MDA-N, with TK-10, in the assay on A498 and with SF-295 was > 100 µM (inactive) in each case. In addition, the GI50 in the assay on HCC 2998 was > 100 µM (inactive); with SW-620, > 100 µM (inactive); in the assay with U-251, > 100 µM (inactive); in the assay with CCRF-CEM, > 100 µM (inactive); in the assay with RPMI-8226, > 10 µM (inactive); in the assay on OVCAR-8, > 100 µM (inactive). The GI50 with SN12C and with KM12 was > 100 µM (inactive) throughout.

Take `CC1=C(C)C(=O)OC(C(C)(O)C2(O)CC3OC34C3CC(O)C56OC5C=CC(=O)C6(C)C3CCC42C)C1` (stereo not drawn): the GI50 is 1.91 µM (inactive) in the assay with NCI-H23; 11 µM (inactive) with HOP-62; 2.39 µM (inactive) in the assay on OVCAR-5; 0.617 µM (active) in the assay with UACC-62; 4.76 µM (inactive) in the assay with NCI-H226; 4.71 µM (inactive) with OVCAR-4. Moreover, the GI50 is 1.21 µM (inactive) in the assay with MCF7; 0.845 µM (active) in the assay on ACHN; 1.61 µM (inactive) in the assay on MDA-N; 1.5 µM (inactive) with TK-10; 2.73 µM (inactive) in the assay with A498; 3.48 µM (inactive) with SF-295. In addition, the GI50 with HCC 2998 is 1.26 µM (inactive); in the assay with SW-620 it was 3.03 µM (inactive); in the assay on U-251 it was 1.76 µM (inactive); in the assay with CCRF-CEM, 0.851 µM (active); with RPMI-8226 it was 1.24 µM (inactive); with OVCAR-8, 1.85 µM (inactive). Also, the results for the GI50 with SN12C and with KM12 were 2.82 µM (inactive) and 2.16 µM (inactive), respectively.

For `CCOC(=O)C(C(=O)OCC)=C1NC2(c3ccccc3Nc3ccc(C)cc32)C(C#N)S1` (stereo not drawn), the GI50 is 3.56 µM (inactive) in the assay with NCI-H23; 11.4 µM (inactive) with HOP-62; 11.3 µM (inactive) with OVCAR-5; 9.48 µM (inactive) in the assay on UACC-62; 11.5 µM (inactive) with NCI-H226; 5.66 µM (inactive) with OVCAR-4. In addition, the GI50 with MCF7 was 3.05 µM (inactive); in the assay on ACHN it was 3.47 µM (inactive); in the assay with MDA-N, 10.6 µM (inactive); in the assay on TK-10, 8.47 µM (inactive); in the assay on A498 it was 10.3 µM (inactive); with SF-295, 9.59 µM (inactive). In addition, the GI50 with HCC 2998 was 3.57 µM (inactive); in the assay with SW-620, 6.59 µM (inactive); with U-251, 5.57 µM (inactive); in the assay with CCRF-CEM, 4.27 µM (inactive); with RPMI-8226, 2.32 µM (inactive); in the assay with OVCAR-8, 8.61 µM (inactive). Moreover, the GI50 in the assay on SN12C is 3.24 µM (inactive); in the assay with KM12 it was 4.43 µM (inactive).

Turning to `CCOC(=O)c1sc2c(c1OC(=O)c1ccco1)c(=O)n(-c1ccccc1)c(=S)n2-c1ccccc1`, the GI50 was 28.7 µM (inactive) in the assay on NCI-H23; 32.1 µM (inactive) in the assay with HOP-62; > 100 µM (inactive) with OVCAR-5; 26.2 µM (inactive) with UACC-62; 22.1 µM (inactive) with NCI-H226; 26.8 µM (inactive) with OVCAR-4. The GI50 is 41.3 µM (inactive) with MCF7; 27.5 µM (inactive) with ACHN; 41.7 µM (inactive) with MDA-N; 39.1 µM (inactive) with TK-10; 23 µM (inactive) in the assay on A498; > 100 µM (inactive) with SF-295. Moreover, the GI50 in the assay with HCC 2998 was 31.4 µM (inactive); in the assay with SW-620, 42.1 µM (inactive); in the assay with U-251 it was 35.5 µM (inactive); in the assay with CCRF-CEM, 35.8 µM (inactive); in the assay on RPMI-8226 it was 30.6 µM (inactive); with OVCAR-8, 26.1 µM (inactive). The GI50 in the assay on SN12C is 23.7 µM (inactive); in the assay with KM12, 33.4 µM (inactive).

With `Cc1cc(Cl)ccc1Nc1nc2c(s1)C(=O)c1ccccc1C2=O`, the GI50 with NCI-H23 is 1.84 µM (inactive); in the assay with HOP-62, 5.13 µM (inactive); in the assay on OVCAR-5 it was 4.55 µM (inactive); in the assay on UACC-62 it was 2.5 µM (inactive); in the assay with NCI-H226, 6.34 µM (inactive); with OVCAR-4 it was 3.29 µM (inactive). Besides, the GI50 is 1.87 µM (inactive) in the assay on MCF7; 3.98 µM (inactive) in the assay on ACHN; 0.604 µM (active) in the assay on MDA-N; 16.9 µM (inactive) with TK-10; 22.2 µM (inactive) in the assay on A498; 9.12 µM (inactive) in the assay on SF-295. Also, the GI50 is 6.34 µM (inactive) in the assay with HCC 2998; 1.94 µM (inactive) with SW-620; 3.28 µM (inactive) in the assay on U-251; 2.18 µM (inactive) in the assay on CCRF-CEM; 2.92 µM (inactive) in the assay on RPMI-8226; 2.88 µM (inactive) with OVCAR-8. Further, the figures for the GI50 with SN12C and in the assay on KM12 were 1.8 µM (inactive) and 6.01 µM (inactive), respectively.

Turning to `COc1cccc(C2c3cc4c(cc3OC(Nc3ccccc3)C2C)OCO4)c1O` (stereo not drawn), the GI50 was 8.26 µM (inactive) in the assay with NCI-H23; 12.9 µM (inactive) with HOP-62; 30.1 µM (inactive) in the assay with OVCAR-5; 9.02 µM (inactive) with UACC-62; 12 µM (inactive) in the assay on NCI-H226; 36.3 µM (inactive) in the assay with OVCAR-4. In addition, the GI50 in the assay with MCF7 was 6.68 µM (inactive); in the assay with ACHN it was 10.9 µM (inactive); with MDA-N, 2.42 µM (inactive); with TK-10, 15.8 µM (inactive); in the assay on A498 it was 7.82 µM (inactive); in the assay with SF-295 it was 5.25 µM (inactive). The GI50 was 11.7 µM (inactive) with HCC 2998; 4.88 µM (inactive) in the assay with SW-620; 5.7 µM (inactive) in the assay on U-251; 2.58 µM (inactive) in the assay on CCRF-CEM; 6.43 µM (inactive) in the assay on RPMI-8226; 12.9 µM (inactive) in the assay on OVCAR-8. For the same molecule, the GI50 was 8.83 µM (inactive) in the assay on SN12C and 4.63 µM (inactive) in the assay on KM12.

As to `Cn1c(=O)c2ccccc2[n+]2c(-c3cccc([N+](=O)[O-])c3)csc12`, the GI50 was > 100 µM (inactive) in the assay with NCI-H23; 21.2 µM (inactive) with HOP-62; > 100 µM (inactive) in the assay with OVCAR-5; 70.3 µM (inactive) in the assay with UACC-62; > 100 µM (inactive) in the assay with NCI-H226; > 100 µM (inactive) with OVCAR-4. For the same molecule, the GI50 was 32.6 µM (inactive) in the assay on MCF7; > 100 µM (inactive) in the assay on ACHN; 76.6 µM (inactive) in the assay on MDA-N; 36.4 µM (inactive) in the assay with TK-10; 58.9 µM (inactive) in the assay with A498; 44.8 µM (inactive) in the assay with SF-295. Besides, the GI50 with HCC 2998 was > 100 µM (inactive); with SW-620 it was > 100 µM (inactive); in the assay with U-251 it was 32.6 µM (inactive); in the assay on CCRF-CEM it was 32.6 µM (inactive); in the assay with RPMI-8226, 28.1 µM (inactive); in the assay on OVCAR-8, 18 µM (inactive). The GI50 was > 100 µM (inactive) in the assay with SN12C and 58.2 µM (inactive) with KM12.

For the molecule `O=c1[nH]c(=S)c2cc3c(=S)[nH]c(=O)n(CCC(c4ccccc4)(c4ccccc4)c4ccccc4)c3nc2n1CCC(c1ccccc1)(c1ccccc1)c1ccccc1`, the GI50 in the assay on NCI-H23, with HOP-62, in the assay on OVCAR-5, with UACC-62, in the assay on NCI-H226 and in the assay with OVCAR-4 was > 100 µM (inactive) throughout. For the same molecule, the GI50 in the assay with MCF7, with ACHN, in the assay with MDA-N, in the assay on TK-10, with A498 and with SF-295 was > 100 µM (inactive) in each case. Moreover, the GI50 in the assay with HCC 2998 is > 100 µM (inactive); in the assay on U-251, > 100 µM (inactive); in the assay on CCRF-CEM, 13.6 µM (inactive); in the assay with RPMI-8226, > 100 µM (inactive); with SN12C, > 100 µM (inactive); in the assay on KM12, > 100 µM (inactive).

For the origin of these results see ChEMBL document CHEMBL1201862, “PubChem BioAssay data set” (2004).
